We go through 25 compounds from patent US8536354B2, “Steroidal ligands and their use in gene switch modulation” (Intrexon Corporation, priority 2008, dated 2013).

The structures appear in SMILES notation.

Experiment [1] has as its target T1, TmEcR (GAL4-EcR DEF with VP16-RXR partner) (Tenebrio molitor, UniProt O02035).
T1 sequence (O02035 194-491): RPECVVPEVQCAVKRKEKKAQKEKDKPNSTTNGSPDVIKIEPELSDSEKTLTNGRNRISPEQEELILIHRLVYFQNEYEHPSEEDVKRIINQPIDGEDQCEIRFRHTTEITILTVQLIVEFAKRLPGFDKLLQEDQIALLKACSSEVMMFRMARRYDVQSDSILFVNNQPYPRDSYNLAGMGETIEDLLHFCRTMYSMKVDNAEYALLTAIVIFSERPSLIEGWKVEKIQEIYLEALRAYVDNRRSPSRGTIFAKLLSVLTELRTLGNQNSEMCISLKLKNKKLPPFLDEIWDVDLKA
T1 sequence (P28704 1-520 partner): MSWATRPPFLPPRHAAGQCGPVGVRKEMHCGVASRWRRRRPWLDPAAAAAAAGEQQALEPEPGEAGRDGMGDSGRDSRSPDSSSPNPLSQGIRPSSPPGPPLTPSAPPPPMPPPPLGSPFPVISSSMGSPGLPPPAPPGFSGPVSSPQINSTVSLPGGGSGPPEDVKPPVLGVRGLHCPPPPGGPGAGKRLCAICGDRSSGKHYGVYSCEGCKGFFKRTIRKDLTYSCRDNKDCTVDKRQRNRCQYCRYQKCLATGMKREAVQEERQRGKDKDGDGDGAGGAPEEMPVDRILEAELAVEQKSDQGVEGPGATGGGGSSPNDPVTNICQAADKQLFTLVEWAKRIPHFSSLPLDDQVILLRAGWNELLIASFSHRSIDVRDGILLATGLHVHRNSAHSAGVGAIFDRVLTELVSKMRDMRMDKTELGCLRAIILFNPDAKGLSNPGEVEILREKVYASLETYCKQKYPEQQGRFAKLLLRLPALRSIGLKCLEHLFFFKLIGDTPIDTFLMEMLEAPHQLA
As to the kind of experiment: Two-hybrid gene switch assay, luciferase reporter, TmEcR, mouse NIH3T3 cells. (In general: Reporter assays use an easily measured gene product as a stand-in for the process of interest.)

Experiment [2] has as its target wild-type Drosophila melanogaster EcR (DmEcR; GAL4-EcR DEF with VP16-RXR-USP chimera) (Drosophila melanogaster, UniProt P34021). As to the kind of experiment: Two-hybrid gene switch assay, luciferase reporter, wild-type DmEcR, mouse NIH3T3 cells. It counts as cell-based.
The mark [3] stands for this setting: EC50, FIG. 14A/14B, GAL4-EcR(DEF).
[4] abbreviates: EC50, FIG. 14A/14B, GAL4-EcR(DEF) with VP16-RXR-USP chimera.
[5] abbreviates: EC50, FIG. 16, GAL4-EcR (DEF) / VP16-RXR-USP chimera.

Sequence of wild-type Drosophila melanogaster EcR (DmEcR; GAL4-EcR DEF with VP16-RXR-USP chimera) (P34021 with tags, fused parts or gaps limits assumed): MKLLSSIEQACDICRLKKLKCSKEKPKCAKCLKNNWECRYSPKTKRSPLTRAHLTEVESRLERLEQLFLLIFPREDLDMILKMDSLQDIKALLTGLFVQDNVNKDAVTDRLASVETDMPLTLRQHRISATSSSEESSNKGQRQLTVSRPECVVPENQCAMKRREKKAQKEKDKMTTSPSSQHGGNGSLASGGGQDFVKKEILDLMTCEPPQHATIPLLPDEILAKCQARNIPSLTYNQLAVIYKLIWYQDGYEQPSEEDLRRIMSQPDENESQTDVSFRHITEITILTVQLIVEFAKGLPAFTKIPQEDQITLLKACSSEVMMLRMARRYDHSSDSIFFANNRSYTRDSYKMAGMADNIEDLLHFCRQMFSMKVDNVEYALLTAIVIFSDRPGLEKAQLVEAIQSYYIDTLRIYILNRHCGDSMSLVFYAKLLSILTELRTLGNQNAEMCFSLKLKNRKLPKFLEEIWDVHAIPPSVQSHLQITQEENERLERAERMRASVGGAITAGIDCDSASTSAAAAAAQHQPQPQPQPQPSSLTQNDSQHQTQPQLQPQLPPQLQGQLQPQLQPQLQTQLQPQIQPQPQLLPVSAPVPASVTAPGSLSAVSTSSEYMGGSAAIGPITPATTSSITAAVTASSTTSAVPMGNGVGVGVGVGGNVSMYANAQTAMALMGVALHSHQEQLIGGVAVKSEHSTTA

As to `CCC(CC(O)C(C)(O)C1CCC2(O)C3=CC(=O)C4CC(O)C(O)CC4(C)C3CCC12C)C(C)(C)O` (stereo not drawn) [makisterone C], the values for the EC50 in experiment [1] (setting [3]) and in experiment [2] (setting [4]) were around 4 µM and around 5 µM, respectively.
For the compound `CC1(C)OC(=O)C=C1CC(O)C(C)(O)C1CCC2(O)C3=CC(=O)C4CC(O)C(O)CC4(C)C3CCC12C` (stereo not drawn) [carthamosterone], the EC50 in experiment [1] (setting [3]) and in experiment [2] (setting [4]) was above 33 µM throughout.
`C[C@H]([C@H](O)CCC(C)(C)O)[C@H]1CC[C@@]2(O)C3=CC(=O)[C@@H]4C[C@@H](O)[C@@H](O)C[C@]4(C)[C@H]3CC[C@]12C` [ecdysone]: the EC50 (as a rule, the concentration needed to bring the measured effect to its halfway point) is above 33 µM in experiment [1] (setting [3]); above 33 µM in experiment [1] (EC50, FIG. 16, GAL4-EcR (DEF)); above 33 µM in experiment [2] (setting [4]); above 33 µM in experiment [2] (setting [5]).
As to `CC(C(O)CCC(C)(C)O)C1CCC2(O)C3=CC(=O)C4CC(O)CCC4(C)C3CCC12C` (stereo not drawn) [Compound 2-deoxyecdysone], the EC50 in experiment [1] (setting [3]) and in experiment [2] (setting [4]) was above 33 µM in each case.
In the case of `CC(C)(O)CC[C@@H](O)[C@](C)(O)[C@H]1CC[C@@]2(O)C3=CC(=O)[C@]4(O)C[C@@H](O)[C@@H](O)C[C@]4(C)[C@H]3CC[C@]12C` [polypodine B], the 50% effective concentration (EC50) is around 10 µM in experiment [1] (setting [3]); around 3 µM in experiment [1] (EC50, FIG. 16, GAL4-EcR (DEF)); around 2 µM in experiment [2] (setting [4]); 2.54 µM in experiment [2] (setting [5]).
Consider `CCCCCCCCCC(=O)OC1CC2(C)C(C(C)(O)C(O)CCC(C)(C)O)CCC2(O)C2=CC(=O)C3CC(O)C(O)CC3(C)C21` (stereo not drawn) [turkesterone-11a-decanoate], for which the EC50 in experiment [1] (setting [3]) and in experiment [2] (setting [4]) was above 33 µM throughout.
On to `C[C@@H](CO)CC[C@@H](O)[C@](C)(O)[C@H]1CC[C@@]2(O)C3=CC(=O)[C@@H]4C[C@@H](O)[C@@H](O)C[C@]4(C)[C@H]3CC[C@]12C` [(25R)-inokosterone], for which the EC50 is around 20 µM in experiment [1] (setting [3]) and 9.46 µM in experiment [2] (setting [4]).
As to `CC(C)(O)C(CCC(C)(O)C1CCC2(O)C3=CC(=O)C4CC(O)C(O)CC4(C)C3CCC12C)OC(=O)c1ccc[nH]1` (stereo not drawn) [canescensterone], the results for the EC50 in experiment [1] (setting [3]) and in experiment [2] (setting [4]) were around 0.33 µM and around 0.5 µM, respectively.
In the same order, the values of `CC(=O)OCC(=O)O[C@H](CCC(C)(C)O)[C@](C)(O)[C@H]1CC[C@@]2(O)C3=CC(=O)[C@@H]4C[C@@H](O)[C@@H](O)C[C@]4(C)[C@H]3CC[C@]12C` [20-hydroxyecdysone 22-acetoxyacetate] are around 10 µM and around 20 µM.
Consider `CC(C)(O)CC[C@@H](O)[C@](C)(O)[C@H]1CC[C@@]2(O)C3=CC(=O)[C@@H]4C[C@@H](O)[C@@H](O)C[C@]4(C)[C@H]3[C@H](O)C[C@]12C` [turkesterone], for which the values for the EC50 in experiment [1] (setting [3]) and in experiment [2] (setting [4]) were above 33 µM and around 15 µM, respectively.
As for `CCC(=O)OC1CC2(C)C(C(C)(O)C(O)CCC(C)(C)O)CCC2(O)C2=CC(=O)C3CC(O)C(O)CC3(C)C21` (stereo not drawn) [turkesterone-11 a -propionate], the EC50 in experiment [1] (setting [3]) and in experiment [2] (setting [4]) was above 33 µM in each case.
For the compound `CC(C)(O)CC[C@@H](O)[C@](C)(O)[C@H]1CC[C@@]2(O)C3=CC(=O)[C@@H]4C[C@@H](O)[C@@H](O)[C@@H](O)[C@]4(C)[C@H]3CC[C@]12C` [integristerone A], the EC50 in experiment [1] (setting [3]) was around 8 µM; in experiment [2] (setting [4]), above 33 µM.
For `CC(CC(O)C(C)(O)C1CCC2(O)C3=CC(=O)C4CC(O)C(O)CC4(C)C3CCC12C)C(C)(C)O` (stereo not drawn) [makisterone A], the EC50 in experiment [1] (setting [3]) and in experiment [2] (setting [4]) was around 20 µM in each case.
In the case of `CC(C)CC[C@@H](O)[C@](C)(O)[C@H]1CC[C@@]2(O)C3=CC(=O)[C@@H]4C[C@@H](O)[C@@H](O)C[C@]4(C)[C@H]3[C@H](O)C[C@]12C` [ajugasterone C], the EC50 was 9.51 µM in experiment [1] (setting [3]) and around 2 µM in experiment [2] (setting [4]).
`CC(C)(O)CC[C@@H](O)[C@](C)(O)[C@H]1CC[C@@]2(O)C3=C[C@H](O)[C@@H]4C[C@@H](O)[C@@H](O)C[C@]4(C)[C@H]3CC[C@]12C` [Compound 6a-hydroxy-20-hydroxyecdysone]: the EC50 in experiment [1] (setting [3]) and in experiment [2] (setting [4]) was above 33 µM in each case.
As to `CC(C)(O)CC[C@@H](O)[C@](C)(O)[C@H]1CC[C@@]2(O)C3=C[C@@H](O)[C@@H]4C[C@@H](O)[C@@H](O)C[C@]4(C)[C@H]3CC[C@]12C` [Compound 6b-hydroxy-20-hydroxyecdysone], the EC50 in experiment [1] (setting [3]) and in experiment [2] (setting [4]) was around 20 µM in each case.
Consider `CC(C)=CC[C@@H](O)[C@](C)(O)[C@H]1CC[C@@]2(O)C3=CC(=O)[C@@H]4C[C@@H](O)[C@@H](O)C[C@]4(C)[C@H]3CC[C@]12C` [stachysterone C], for which the EC50 in experiment [1] (setting [3]) was 1.47 µM; in experiment [2] (setting [4]), 0.385 µM.
In the same order, the values of `CC(C)(O)CC[C@@H](O)[C@](C)(O)[C@H]1CC[C@@]2(O)C3=CC(=O)[C@@H]4C[C@H]5OC(C)(C)O[C@H]5C[C@]4(C)[C@H]3CC[C@]12C` [20-hydroxyecdysone-2,3-acetonide] are around 10 µM and above 33 µM.
The corresponding values for `C[C@H](CO)CC[C@@H](O)[C@](C)(O)[C@H]1CC[C@@]2(O)C3=CC(=O)[C@@H]4C[C@@H](O)[C@@H](O)C[C@]4(C)[C@H]3CC[C@]12C` [(25S)-inokosterone] are around 10 µM and around 20 µM.
In the same order, the values of `CCCCCC(=O)OC1CC2(C)C(C(C)(O)C(O)CCC(C)(C)O)CCC2(O)C2=CC(=O)C3CC(O)C(O)CC3(C)C21` (stereo not drawn) [turkesterone-11 a -hexanoate] are above 33 µM and above 33 µM.
For the compound `CC(=O)O[C@H](CCC(C)(C)O)[C@](C)(O)[C@H]1CC[C@@]2(O)C3=CC(=O)[C@@H]4C[C@@H](O)[C@@H](O)C[C@]4(C)[C@H]3CC[C@]12C` [Compound 20-hydroxyecdysone-22-acetate], the EC50 in experiment [1] (setting [3]) is around 2 µM; in experiment [2] (setting [4]) it was above 33 µM.
In the same order, the values of `CC(C)(O)CCC(=O)[C@](C)(O)[C@H]1CC[C@@]2(O)C3=CC(=O)[C@@H]4C[C@@H](O)[C@@H](O)C[C@]4(C)[C@H]3CC[C@]12C` [Compound 22-dehydro-20-hydroxyecdysone] are around 15 µM and around 20 µM.
For the compound `C[C@@H]1C(=O)O[C@H](C)[C@H]1C[C@@H](O)[C@](C)(O)[C@H]1CC[C@@]2(O)C3=CC(=O)[C@@H]4C[C@@H](O)[C@@H](O)C[C@]4(C)[C@H]3CC[C@]12C` [cyasterone], the 50% effective concentration (EC50) in experiment [1] (setting [3]) and in experiment [2] (setting [4]) was above 33 µM each time.
As for `CC(C)(O)CC[C@@H](O)[C@](C)(O)[C@H]1CC[C@@]2(O)C3=CC(=O)[C@@H]4C[C@@H](O)[C@@H](O)C[C@]4(C)C3=CC[C@]12C` [Compound 25-hydroxydacryhainansterone], the EC50 was around 20 µM in experiment [1] (setting [3]) and above 33 µM in experiment [2] (setting [4]).
Take `CC(C)(O)CC[C@@H](OC(=O)c1ccc[nH]1)[C@](C)(O)[C@H]1CC[C@@]2(O)C3=CC(=O)[C@@H]4C[C@@H](O)[C@@H](O)C[C@]4(C)[C@H]3CC[C@]12C`: the EC50 in experiment [1] (setting [3]) and in experiment [2] (setting [4]) was around 20 µM each time.
